The assay has as its target T1, human PPARα (Homo sapiens, UniProt Q07869).
T1 construct: host or cells: proprietary non-human mammalian cells
T1 sequence (Q07869 1-468): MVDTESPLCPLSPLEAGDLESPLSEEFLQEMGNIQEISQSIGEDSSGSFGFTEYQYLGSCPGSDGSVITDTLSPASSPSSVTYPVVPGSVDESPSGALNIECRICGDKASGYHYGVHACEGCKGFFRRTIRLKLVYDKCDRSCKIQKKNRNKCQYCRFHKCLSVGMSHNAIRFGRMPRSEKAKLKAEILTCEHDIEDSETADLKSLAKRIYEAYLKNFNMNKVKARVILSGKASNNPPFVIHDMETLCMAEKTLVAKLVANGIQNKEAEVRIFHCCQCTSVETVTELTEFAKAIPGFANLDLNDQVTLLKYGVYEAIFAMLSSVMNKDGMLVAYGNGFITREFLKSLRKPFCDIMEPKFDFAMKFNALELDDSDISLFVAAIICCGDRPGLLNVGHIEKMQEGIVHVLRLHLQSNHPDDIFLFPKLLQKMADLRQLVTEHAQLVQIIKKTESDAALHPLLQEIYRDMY
Nature of the assay: Human PPARα Reporter Assay (luciferase, Indigo Biosciences). In kind it is cell-based. The settings on record: antagonism; luciferase reporter cells, overnight incubation; read-out: PPARα IC50. Here is the method: Human PPARα Reporter Assay
The screening of test compounds for agonist or antagonist activities against human PPARα receptors was performed using a commercial kit, Human PPARα Reporter Assay System (Indigo Biosciences, Cat. #IB00111).
This nuclear receptor assay system utilizes proprietary non-human mammalian cells engineered to provide constitutive, high-level expression of Human PPARα. Because these cells incorporate a PPARα-responsive luciferase reporter gene, quantifying expressed luciferase activity provides a sensitive surrogate measure of PPARα activity in the treated cells. The primary application of this reporter assay system is in the screening of test samples to quantify any functional activity, either agonist or antagonist, that they may exert against human PPARα.
Briefly, reporter cells are dispensed into wells of the assay plate and then immediately dosed with test compounds. Following an overnight incubation, the treatment media is discarded and Luciferase Detection Reagent (LDR) is added. The intensity of light emission from the ensuing luciferase reaction provides a sensitive measure that is directly proportional to the relative level of PPARα activation in the reporter cells.
As to `Cc1ccc(N2N=C(CCCc3ccc(OC(C)(C)C(=O)O)cc3)C3(CCCC3)C2=O)cc1C` [Example 31, 2-(4-(3-(3-(3,4-dimethylphenyl)-4-oxo-2,3-diazaspiro[4,4]non-1-en-1-yl)propyl)phenoxy)-2-methylpropanoic acid], the IC50 was found to be 2.6 nM. As for `CC1(C)C(=O)N(c2cccc(C(F)(F)F)c2)N=C1CCCc1ccc(OC(C)(C(=O)O)c2ccccc2)cc1` (single isomer, unassigned) [54-enantiomer#2, 2-(4-(3-(4,4-dimethyl-5-oxo-1-(3-(trifluoromethyl)phenyl)-4,5-dihydro-1H-pyrazol-3-yl)propyl)phenoxy)-2-phenylpropanoic acid], the half-maximal inhibitory concentration (IC50) turned out to be 8.9 nM. To `CC(C)(Oc1ccc(CCCC2=NN(c3ccc(OC(F)(F)F)cc3)C(=O)C23CCCC3)cc1)C(=O)O` [Example 28, 2-methyl-2-(4-(3-(4-oxo-3-(4-(trifluoromethoxy)phenyl)-2,3-diazaspiro[4,4]non-1-en-1-yl)propyl)phenoxy)propanoic acid] belongs 0.97 nM. To `COc1ccc(-c2ccc(CCCC3=NN(Cc4ccc(C(C)(C)C)cc4)C(=O)C3(C)C)cc2)nc1NS(=O)(=O)c1ccccc1` [Example 59, N-(6-(4-(3-(1-(4-(tert-butyl)benzyl)-4,4-dimethyl-5-oxo-4,5-dihydro-1H-pyrazol-3-yl)propyl)phenyl)-3-methoxypyridin-2-yl)benzenesulfonamide] belongs 10 nM; to `CC1(C)C(=O)N(c2ccc(C(F)(F)F)cc2)N=C1CCCc1ccc(OC(C)(C)C(O)C(F)(F)F)cc1` (stereo not drawn) [Example 43, 4,4-dimethyl-3-(3-(4-((4,4,4-trifluoro-3-hydroxy-2-methylbutan-2-yl)oxy)phenyl)propyl)-1-(4-(trifluoromethyl)phenyl)-1H-pyrazol-5(4H)-one], 1200 nM; to `CC(C)(Oc1ccc(CCCC2=NN(c3cccc(C(F)(F)F)c3)C(=O)C23CCCC3)cc1)C(=O)O` [Example 35, 2-methyl-2-(4-(3-(4-oxo-3-(3-(trifluoromethyl)phenyl)-2,3-diazaspiro[4,4]non-1-en-1-yl)propyl)phenoxy)propanoic acid], 32 nM.

`CCCC1(CCC)C(=O)N(c2cccc(C(F)(F)F)c2)N=C1CCCc1ccc(OC(C)(C)C(=O)O)cc1` [Example 42, 2-methyl-2-(4-(3-(5-oxo-4,4-dipropyl-1-(3-(trifluoromethyl)phenyl)-4,5-dihydro-1H-pyrazol-3-yl)propyl)phenoxy)propanoic acid]: the half-maximal inhibitory concentration (IC50) worked out at 34000 nM. `CC(C)(Oc1ccc(CCCC2=NN(c3ccc(OC(F)(F)F)cc3)C(=O)C23CCCC3)cc1)C(=O)NC1CC1` [Example 29, N-cyclopropyl-2-methyl-2-(4-(3-(4-oxo-3-(4-(trifluoromethoxy)phenyl)-2,3-diazaspiro[4,4]non-1-en-1-yl)propyl)phenoxy)propanamide]: the 50% inhibitory concentration (IC50) was found to be 69 nM. In the case of `CC(C)(Oc1ccc(CCCC2=NN(Cc3ccc(C(C)(C)C)cc3)C(=O)C23CCCC3)cc1)C(=O)O` [Example 23, 2-(4-(3-(3-(4-(tert-butyl)benzyl)-4-oxo-2,3-diazaspiro[4,4]non-1-en-1-yl)propyl)phenoxy)-2-methylpropanoic acid] it was 13 nM; in that of `CC(C)(Oc1ccc(CCCC2=NN(c3cccc(-c4ccccc4)c3)C(=O)C23CCCC3)cc1)C(=O)O` [Example 38, 2-(4-(3-(3-([1,1′-biphenyl]-3-yl)-4-oxo-2,3-diazaspiro[4,4]non-1-en-1-yl)propyl)phenoxy)-2-methylpropanoic acid], 25 nM.

Turning to `CC(C)(Oc1ccc(CCCC2=NN(Cc3cccc(C(F)(F)F)c3)C(=O)C2(C)C)cc1)C(=O)O` [Example 7, 2-(4-(3-(4,4-dimethyl-5-oxo-1-(3-(trifluoromethyl)benzyl)-4,5-dihydro-1H-pyrazol-3-yl)propyl)phenoxy)-2-methylpropanoic acid], the 50% inhibitory concentration (IC50) came out at 900 nM. In the case of `CC(C)(Oc1ccc(CCCC2=NN(c3cccc(C(C)(C)C)c3)C(=O)C23CCCC3)cc1)C(=O)O` [Example 40, 2-(4-(3-(3-(3-(tert-butyl)phenyl)-4-oxo-2,3-diazaspiro[4,4]non-1-en-1-yl)propyl)phenoxy)-2-methylpropanoic acid] it was 20 nM; in that of `CC1(C)C(=O)N(c2ccc(C(F)(F)F)cc2)N=C1CCCc1ccc(OC(C)(C(=O)O)c2ccccc2)cc1` (single isomer, unassigned) [53-enantiomer#2, 2-(4-(3-(4,4-dimethyl-5-oxo-1-(4-(trifluoromethyl)phenyl)-4,5-dihydro-1H-pyrazol-3-yl)propyl)phenoxy)-2-phenylpropanoic acid], 2.1 nM. In the case of `CC(C)(Oc1ccc(CCCC2=NN(Cc3ccc(Br)cc3)C(=O)C2(C)C)cc1)C(=O)O` [Example 13, 2-(4-(3-(1-(4-bromobenzyl)-4,4-dimethyl-5-oxo-4,5-dihydro-1H-pyrazol-3-yl)propyl)phenoxy)-2-methylpropanoic acid] it was 360 nM; in that of `CC(C)(Oc1ccc(CCCC2=NN(Cc3ccc(C(C)(C)C)cc3)C(=O)C2(C)C)cc1)C(=O)O` [Example 1, 2-(4-(3-(1-(4-(tert-butyl)benzyl)-4,4-dimethyl-5-oxo-4,5-dihydro-1H-pyrazol-3-yl)propyl)phenoxy)-2-methylpropanoic acid], 15 nM; in that of `CC(C)(Oc1ccc(CCCC2=NN(Cc3ccc(C(F)(F)F)c(F)c3)C(=O)C2(C)C)cc1)C(=O)O` [Example 18, 2-(4-(3-(1-(3-fluoro-4-(trifluoromethyl)benzyl)-4,4-dimethyl-5-oxo-4,5-dihydro-1H-pyrazol-3-yl)propyl)phenoxy)-2-methylpropanoic acid], 120 nM. `CC(C)(Oc1ccc(CCCC2=NN(c3ccccc3)C(=O)C2(C)C)cc1)C(=O)O` [Example 10, 2-(4-(3-(4,4-dimethyl-5-oxo-1-phenyl-4,5-dihydro-1H-pyrazol-3-yl)propyl)phenoxy)-2-methylpropanoic acid]: the IC50 is 410 nM. To `Cc1ccc(N2N=C(CCCc3ccc(OC(C)(C)C(=O)NC4CC4)cc3)C3(CCCC3)C2=O)cc1C` [Example 32, N-cyclopropyl-2-(4-(3-(3-(3,4-dimethylphenyl)-4-oxo-2,3-diazaspiro[4,4]non-1-en-1-yl)propyl)phenoxy)-2-methylpropanamide] belongs 250 nM; to `CC1(C)C(=O)N(c2ccc(C(F)(F)F)cc2)N=C1CCCc1ccc(OC(C)(C(=O)O)c2ccccc2)cc1` (single isomer, unassigned) [53-enantiomer#1, 2-(4-(3-(4,4-dimethyl-5-oxo-1-(4-(trifluoromethyl)phenyl)-4,5-dihydro-1H-pyrazol-3-yl)propyl)phenoxy)-2-phenylpropanoic acid], 820 nM. In the case of `CC(C)(Oc1ccc(CCCC2=NN(c3ccc(OC(F)(F)F)cc3)C(=O)C23CCCC3)cc1)C(=O)NCC(F)(F)F` [Example 30, 2-methyl-2-(4-(3-(4-oxo-3-(4-(trifluoromethoxy)phenyl)-2,3-diazaspiro[4,4]non-1-en-1-yl)propyl)phenoxy)-N-(2,2,2-trifluoroethyl)propanamide] it was 710 nM; in that of `CC1(C)C(=O)N(c2ccc(C(F)(F)F)cc2)N=C1CCCc1ccc(OC(C(=O)O)c2ccccc2)cc1` (stereo not drawn) [Example 48, 2-(4-(3-(4,4-dimethyl-5-oxo-1-(4-(trifluoromethyl)phenyl)-4,5-dihydro-1H-pyrazol-3-yl)propyl)phenoxy)-2-phenylacetic acid], 4.7 nM.

What is called IC50 is the concentration needed to halve the response being measured.
